Measurements from PubChem BioAssay (NCI).
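48-hour exposure; five concentrations; linearly interpolated endpoints. Abbreviation: GI50, concentration required for 50% inhibition of growth. Definition used: TGI = concentration required for complete inhibition of growth.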

Assays:
Experiment in all cases: NCI anticancer screen, dose series, 48 h
[1] = test system: OVCAR-3 ovarian
[2] = test system: UACC-257 melanoma
[3] = test system: RXF 393 renal
[4] = test system: HL-60(TB) leukemia
[5] = test system: KM12 colon
[6] = test system: TK-10 renal
[7] = test system: DU-145 prostate
[8] = test system: MDA-MB-435
[9] = test system: MCF7 breast

Structure (SMILES) | TGI [1] | TGI [2] | TGI [3] | TGI [4] | TGI [5] | TGI [6] | TGI [7] | TGI [8] | TGI [9] | GI50 [7] | GI50 [1] | GI50 [2] | GI50 [3] | GI50 [8] | GI50 [5] | GI50 [9] | GI50 [6] | GI50 [4]
NC1=NCCC1(c1ccccc1)c1ccccn1 (stereo not given) | > 100 µM | > 100 µM | > 100 µM | > 100 µM | > 100 µM | > 100 µM | – | – | – | – | – | – | – | – | – | – | – | –
O=C(CCc1nc(=S)[nH][nH]1)Nc1cc(Cl)c(Cl)cc1Cl | > 100 µM | > 100 µM | > 100 µM | > 100 µM | > 100 µM | > 100 µM | – | – | – | – | – | – | – | – | – | – | – | –
CCN(CC)N=Nc1c(C(N)=O)n[nH]c1C | > 100 µM | > 100 µM | > 100 µM | – | > 100 µM | > 100 µM | > 100 µM | > 100 µM | > 100 µM | – | – | – | – | – | – | – | – | –
COc1ccc(CC2c3cc4c(cc3CCN2C)OCO4)c(C=O)c1OC (stereo not given) | > 100 µM | > 100 µM | – | > 100 µM | > 100 µM | > 100 µM | > 100 µM | > 100 µM | > 100 µM | – | – | – | – | – | – | – | – | –
O=C(O)CCNCCCNCCC(=O)O | > 100 µM | – | > 100 µM | > 100 µM | > 100 µM | > 100 µM | – | – | – | – | – | – | – | – | – | – | – | –
CCOC1Oc2ccccc2C(=O)/C1=C/Nc1ccc(C(C)=O)cc1 (stereo not given) | 43.8 µM | 46.9 µM | 72.6 µM | – | 50.2 µM | – | > 100 µM | 61.9 µM | > 100 µM | 29.6 µM | 17.2 µM | 19.7 µM | 27 µM | 24.3 µM | 19.1 µM | 26.7 µM | – | –
COc1cc2ccnc([C@@H](OC(=O)c3ccccc3)c3ccc(OC)c(OC)c3OC)c2cc1OC | > 100 µM | > 100 µM | > 100 µM | > 100 µM | > 100 µM | > 100 µM | – | – | – | – | – | – | – | – | – | – | – | –
CCC[CH2][Sn]([CH2]CCC)([S]c1cccc2cccnc12)[S]c1cccc2cccnc12 | 0.228 µM | – | – | – | – | 0.552 µM | – | – | – | – | 0.0703 µM | – | – | – | – | – | 0.249 µM | –
CCn1c(C)nn2c(=O)c3ccccc3nc2c1=O | > 100 µM | > 100 µM | – | > 100 µM | > 100 µM | > 100 µM | – | – | – | – | – | – | – | – | – | – | – | –
Nc1ccccc1S(=O)(=O)N(CC(=O)O)c1ccccc1 | – | > 100 µM | > 100 µM | > 100 µM | – | > 100 µM | – | – | – | – | – | – | – | – | – | – | – | –
Cc1cc(NS(=O)(=O)c2ccc(Nc3c4ccccc4nc4c(C(=O)N5CCN(CCOS(C)(=O)=O)CC5)cccc34)cc2)no1 | > 100 µM | > 100 µM | > 100 µM | > 100 µM | > 100 µM | > 100 µM | – | – | – | – | – | – | – | – | – | – | – | –
COC1/C=C/OC2(C)Oc3c(C)c(O)c4c(O)c(c(/C=N/Nc5ccc([N+](=O)[O-])cc5[N+](=O)[O-])c(O)c4c3C2=O)NC(=O)C(C)=C/C=C/C(C)C(O)C(C)C(O)C(C)C(OC(C)=O)C1C (stereo not given) | 2.52 µM | 5.58 µM | 1.66 µM | – | 6.68 µM | – | 9.32 µM | 3.72 µM | > 50 µM | 2.55 µM | 1.1 µM | 1.48 µM | 0.899 µM | 1.28 µM | 1.71 µM | 2 µM | – | –
Cc1nc2c(ccc3ncccc32)[nH]1 | > 100 µM | > 100 µM | > 100 µM | > 100 µM | > 100 µM | > 100 µM | – | – | – | – | – | – | – | – | – | – | – | –
Cc1c(C(=O)C/C(=N/NC(=O)c2ccccc2O)C(=O)Nc2ccccc2C(C)C)[n+](=O)c2ccccc2n1[O-] | > 100 µM | > 100 µM | > 100 µM | 38.3 µM | > 100 µM | > 100 µM | – | – | – | – | – | – | – | – | – | – | – | –
CC1CCc2nc[nH]c(=O)c21 (stereo not given) | > 100 µM | – | > 100 µM | > 100 µM | > 100 µM | > 100 µM | > 100 µM | > 100 µM | > 100 µM | > 100 µM | > 100 µM | – | > 100 µM | > 100 µM | > 100 µM | > 100 µM | > 100 µM | > 100 µM
Cc1cc(N(CCC#N)CCC#N)ccc1N=Nc1ccc(S(N)(=O)=O)cc1 | > 100 µM | > 100 µM | > 100 µM | > 100 µM | > 100 µM | > 100 µM | – | – | – | – | – | – | – | – | – | – | – | –
Nc1nc(-n2c(-c3ccccc3)nc3c(Br)cc(Br)cc3c2=O)nnc1-c1cccc(Cl)c1Cl | 53.6 µM | > 100 µM | 58.1 µM | – | 63.4 µM | 20.8 µM | > 100 µM | 6.81 µM | > 100 µM | 27.3 µM | 6.84 µM | 22.3 µM | 14.5 µM | 2.18 µM | 3.29 µM | 4.9 µM | 3.96 µM | –
COC(=O)c1ccccc1NC(=O)C(=O)Cc1nc2c3c(ccc2[nH]c1=O)C(=O)c1ccccc1C3=O | > 100 µM | 62.8 µM | 26.3 µM | – | > 100 µM | 96.4 µM | – | – | – | – | – | – | – | – | – | – | – | –
COC(=O)CC[N+]1=CCC(c2ccccc2)(c2ccccc2)O1 | > 100 µM | > 100 µM | > 100 µM | – | > 100 µM | > 100 µM | > 100 µM | > 100 µM | > 100 µM | – | – | – | – | – | – | – | – | –
CCOC(=O)CCC1(C(=O)OCC)CCCCC1=O (stereo not given) | > 100 µM | > 100 µM | > 100 µM | > 100 µM | > 100 µM | > 100 µM | – | – | – | – | – | – | – | – | – | – | – | –
